Assay results reported in patent US20260306460A1, “COMPOSITION FOR REMOVING AND INHIBITING SENESCENT CELLS, AND USES THEREOF” (LIFECEUTIX CO., LTD., priority 2023, published 2026).

B1: Evolocumab (antibody, chains of the INN, looked up, V domains shown)
VH: EVQLVQSGAEVKKPGASVKVSCKASGYTLTSYGISWVRQAPGQGLEWMGWVSFYNGNTNYAQKLQGRGTMTTDPSTSTAYMELRSLRSDDTAVYYCARGYGMDVWGQGTTVTVSS
VL: ESALTQPASVSGSPGQSITISCTGTSSDVGGYNSVSWYQQHPGKAPKLMIYEVSNRPSGVSNRFSGSKSGNTASLTISGLQAEDEADYYCNSYTSTSMVFGGGTKLTVL
notes: CAS 1256937-27-5

Legend:
senescent human cells = assay: Viability of doxorubicin-induced senescent human cells (CellTiter-Glo), Example 11; format: cell-based; conditions: Homo sapiens, 0 μM = 100, read-out: Survival; for viability at […]: 3.3 μM
[1] = test system: HMGN1 secreted from senescent A549 cells; assay: HMGN1 secretion (ELISA) from senescent A549 cancer cells, Example 12; format: cell-based, human; conditions: senescent untreated = 100%; 30 μM; 90 μM for LX-305, 905, 1302, 1601, 1603, 2003, 2702, 2901, 3106; 270 μM for LX-1103, 2005, 2007;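 note: A549 cells made senescent by doxorubicin exposure, with DMSO-treated cells serving as the non-senescent control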
senescent A549 cells [2] = assay: Viability of senescent A549 cancer cells (CellTiter-Glo), Example 12; format: cell-based, human; conditions: Homo sapiens, A549, 0 μM = 100, read-out: Survival
senescent foreskin cells = assay: Survival of senescent human cells treated with supernatant (secreted fluid) from death-induced cells, Example 13; format: cell-based; conditions: Table 8; supernatant from dying senescent cells treated at 30, 90 or 270 μM (as Example 11); senescent treated cells
naturally aged mice = assay: Anti-aging evaluation in naturally aged mice, Example 31, Table 55; format: in vivo, mouse; conditions: for Femur Ctsk mRNA / Kidney Agtr1a mRNA / Liver IL6 mRNA / Liver MMP3 mRNA / Liver p16 mRNA / Open Field Test Time in Center: untreated = 100%; for Heart Sur2a mRNA / Joint Col2a1 mRNA / Skin Col1a1 mRNA / Skin SDF1 mRNA: untreated = 1.0; for Muscle Mass: untreated 0.64 g; for Fat Mass: untreated 0.82 g; for Cataract incidence: untreated 83%;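 for all read-outs here: Vehicle-dosed control mice received solution alone at matching volume, values compare test-compound-treated aged mice against that control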
[3] = test system: bleomycin-induced pulmonary fibrosis mice; assay: Bleomycin-induced pulmonary fibrosis mice, Example 31, Table 56; format: in vivo, mouse; conditions: untreated = 100%
How it was run: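 Mice with bleomycin-induced pulmonary fibrosis, untreated or given test compound, with vehicle-only controls. Lung tissue collected for RNA extraction and qRT-PCR analysis.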

[4] = test system: carbon tetrachloride-induced liver fibrosis mice; assay: Carbon tetrachloride-induced liver fibrosis mice, Example 31, Table 57; format: in vivo, mouse; conditions: CCl4-induced liver fibrosis mice, untreated = 100%
How it was run: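 Mice with induced hepatic fibrosis received either the test compound or, as controls, an equal volume of vehicle solution alone. Once dosing ended, liver tissue was harvested and total RNA was isolated. cDNA was synthesized from this RNA, and quantitative RT-PCR was run on it to measure hepatic mRNA levels of the fibrosis- and senescence-related genes.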

[5] = test system: naturally aged C57BL6J mice; assay: Geriatric depression and anxiety in aged mice, Example 21-8; format: in vivo, mouse; conditions: aged mice
From the text: The amount of senescent-associated secretory factor (SASP) in serum and tissues collected from mice of Examples 21-5 and 21-6 was reduced by treatment with LX-5701, LX-2101, or LX-2102. It was confirmed that removing senescent cells, which increase with aging in mice, and effectively reducing the amount of senescent-associated secretory factor (SASP) can improve symptoms of geriatric depression and anxiety.

[6] = test system: obesity-induced aged C57BL6J mice; assay: Anxiety, depression, lethargy (open field test) in obesity-aged mice, Example 23-4, Table 44; format: in vivo, mouse; conditions: obesity-aged mice
Method: 15-week-old male C57BL6J mice (The Jackson Laboratory) were induced to obesity by a high-fat diet using the same method as in Example 9-1 WO2023-085787 A1. After acclimation to the experimental environment for one week, the mice were randomly assigned to experimental and control groups. […] LX-3002 was mixed in distilled water with 4% DMSO, 30% PEG300, and 5% Tween80 and administered orally at a concentration of 10 mg/kg daily for 21 days. LX-5701 was mixed in PBS and administered orally at a concentration of 360 mg/kg daily for 21 days. LX-6807 was mixed in saline and administered intraperitoneally at a concentration of 1 mg/kg daily for 21 days. The control group received only the solution in the same volume. After the end of drug administration, the methods described in each example below were performed.
It was determined that anxiety and depression caused by obesity are not causally related to increased body weight, but rather are caused by the accumulation of senescent cells. Accordingly, an activity assessment (open field test) was performed using the same method as in Example 7-7 of WO2023-085787 A1 to analyze lethargy caused by anxiety and depression caused by obesity in mice. The table below quantitatively represents activity, a criterion for assessing lethargy due to anxiety and depression, under conditions in which aging was induced by obesity and the test compound was not administered or was administered. The activity assessment after obesity-induced aging was calculated as 100% and compared with the activity assessment after test compound treatment.

senescent cells = assay: Viability of senescent cells (CellTiter-Glo), Example 17, Table 13; conditions: for Survival (%): doxorubicin-induced senescent cells, 0 μM = 100
senescent A549 cells [7] = assay: Viability of senescent A549 cells (CellTiter-Glo), Example 18, Table 15; conditions: for Survival (%): doxorubicin-induced senescent A549 cells, 0 μM = 100%
[8] = test system: HMGN1 secreted from senescent A549 cells; assay: HMGN1 secretion (ELISA) from senescent A549 cells, Example 18, Table 14; format: cell-based, human; conditions: doxorubicin-senescent A549, without test compound (DMSO) = 100%; 30 μM (LX-5211, LX-5433, LX-6530, LX-6800, LX-9105, LX-9118, LX-9131, LX-9136, LX-9302, LX-9321, LX-9565, LX-9602 at 90 μM; LX-9336 at 2.4 mM)
[9] = Homo sapiens, read-out: Survival (%)
[10] = Homo sapiens, A549, read-out: Survival (%)

Molecule	Femur Ctsk mRNA (naturally aged mice) [%]	Heart Sur2a mRNA (naturally aged mice) [fold]	Joint Col2a1 mRNA (naturally aged mice) [fold]	Kidney Agtr1a mRNA (naturally aged mice) [%]	Liver IL6 mRNA (naturally aged mice) [%]	Liver MMP3 mRNA (naturally aged mice) [%]	Liver p16 mRNA (naturally aged mice) [%]	Open Field Test Time in Center (naturally aged mice) [%]	Skin Col1a1 mRNA (naturally aged mice) [Fold]	Skin SDF1 mRNA (naturally aged mice) [fold]	Muscle Mass (naturally aged mice) [g]	Fat Mass (naturally aged mice) [g]	Cataract incidence (naturally aged mice) [%]	Lung p16 mRNA [3]	Col1a1 mRNA [3]	Liver p16 mRNA [4]	Col1a1 mRNA [4]	HMGN1 [8] [%]	Survival (%) (senescent cells; 1.1 μM)	Survival (%) (senescent cells; 10 μM)	also measured
Cc1nnc(-c2cc(C(=O)N3CCC(c4ccc(C#N)cc4)CC3)c(C)cc2C2CCC2)[nH]1 [LX-305]	73	1.8	2.6	73	61	78	69	157	1.7	1.9	0.66	0.91	75	62 (±3.5) %	73 (±4.1) %	64 (±2.3) %	70 (±3.2) %	–	–	–	viability at 1.1 µM (senescent human cells; 1.1 μM): 101%; viability at […] (senescent human cells): 97.2%; viability at 10 µM (senescent human cells; 10 μM): 91%; viability at 30 µM (senescent human cells; 30 μM): 78%; viability at 90 µM (senescent human cells; 90 μM): 23.2%; HMGN1 [1]: 227%; viability at 1.1 µM (senescent A549 cells [2]; 1.1 μM): 99.2%; viability at […] (senescent A549 cells [2]; 3.3 μM): 93.8%; viability at 10 µM (senescent A549 cells [2]; 10 μM): 63.1%; viability at 30 µM (senescent A549 cells [2]; 30 μM): 41%; viability at 90 µM (senescent A549 cells [2]; 90 μM): 13.3%; Survival (senescent foreskin cells): 89.5
CCN(CC)C(=S)SSC(=S)N(CC)CC [LX-1601, Disulfiram]	40	2.6	2.0	66	43	39	62	228	1.8	2.1	0.74	1.20	62	52 (±3.7) %	63 (±4.6) %	48 (±4.0) %	50 (±2.0) %	–	–	–	viability at […] (senescent human cells): 90%; HMGN1 [1]: 257%; Survival (senescent foreskin cells): 81.4
Cc1nc(C(=O)NCC(=O)O)c(O)c2ccc(Oc3ccccc3)cc12 [LX-6806, Roxadustat]	–	–	–	–	–	–	–	–	–	–	–	–	–	–	–	–	–	–	–	–	amount of SASP, p16, SA-β-gal, lipofuscin [5]: reduced; symptoms of geriatric depression and anxiety [5]: improved; geriatric depression [6]: similarly improving geriatric depression; viability at 1.1 µM (senescent cells; [9]): 95.4%; viability at 10 µM (senescent cells; [9]): 61.2%; viability at 30 µM (senescent cells; [9]): 32.8%; viability at 1.1 µM (senescent A549 cells [7]; [10]): 106%; viability at 10 µM (senescent A549 cells [7]; [10]): 67.2%; viability at 30 µM (senescent A549 cells [7]; [10]): 23.5%
Nc1ccc(O)c(C(=O)O)c1 [LX-9118, 5-aminosalicylic acid]	75	1.7	1.8	71	62	83	74	199	1.9	1.8	0.73	0.88	62	76 (±4.6) %	58 (±3.5) %	69 (±2.4) %	64 (±2.0) %	–	–	–	amount of SASP, p16, SA-β-gal, lipofuscin [5]: reduced; symptoms of geriatric depression and anxiety [5]: improved; geriatric depression [6]: similarly improving geriatric depression; viability at 1.1 µM (senescent cells; [9]): 102%; viability at 10 µM (senescent cells; [9]): 94.1%; viability at 30 µM (senescent cells; [9]): 62.8%; viability at 90 µM (senescent cells; [9]): 4.9%; viability at 1.1 µM (senescent A549 cells [7]; [10]): 105%; viability at 10 µM (senescent A549 cells [7]; [10]): 81.7%; viability at 30 µM (senescent A549 cells [7]; [10]): 51.2%; viability at 90 µM (senescent A549 cells [7]; [10]): 3.4%
Alirocumab [LX-9562]	–	–	–	–	–	–	–	–	–	–	–	–	–	–	–	–	–	269	97.0	45.4	Survival (%) (senescent cells; 30 μM): 14.0%; Survival (%) (senescent cells; […]): 97.3%; Survival (%) (senescent A549 cells [7]; 1.1 μM): 94.1%; Survival (%) (senescent A549 cells [7]; 10 μM): 51.8%; Survival (%) (senescent A549 cells [7]; 30 μM): 2.1%; Survival (%) (senescent A549 cells [7]; […]): 89.1%
Dazdotuftide [LX-9601]	–	–	–	–	–	–	–	–	–	–	–	–	–	–	–	–	–	209	96.9	78.8	Survival (%) (senescent cells; 30 μM): 30.2%; Survival (%) (senescent cells; […]): 89.8%; Survival (%) (senescent A549 cells [7]; 1.1 μM): 92.2%; Survival (%) (senescent A549 cells [7]; 10 μM): 69.1%; Survival (%) (senescent A549 cells [7]; 30 μM): 15.0%; Survival (%) (senescent A549 cells [7]; […]): 89.0%
B1	–	–	–	–	–	–	–	–	–	–	–	–	–	–	–	–	–	291	93.9	58.2	Survival (%) (senescent cells; 30 μM): 18.5%; Survival (%) (senescent cells; […]): 87.6%; Survival (%) (senescent A549 cells [7]; 1.1 μM): 97.5%; Survival (%) (senescent A549 cells [7]; 10 μM): 43.2%; Survival (%) (senescent A549 cells [7]; 30 μM): 5.3%
